In ChEMBL document CHEMBL1128407 (J Med Chem, 1995):

Key:
HCT-116 = test: Compound is evaluated for an in vitro cytotoxicity assay against HCT116 tumor cell lines; assay type: functional, cell-based; conditions: Homo sapiens
[1] = biological target: Tubulin alpha chain (Sus scrofa) (UniProt P02550); test: Compound is evaluated for tubulin polymerization (ratio of compound relative to paclitaxel (EC0.01).
Sequence of Tubulin alpha chain (Sus scrofa) (P02550 whole entry, looked up): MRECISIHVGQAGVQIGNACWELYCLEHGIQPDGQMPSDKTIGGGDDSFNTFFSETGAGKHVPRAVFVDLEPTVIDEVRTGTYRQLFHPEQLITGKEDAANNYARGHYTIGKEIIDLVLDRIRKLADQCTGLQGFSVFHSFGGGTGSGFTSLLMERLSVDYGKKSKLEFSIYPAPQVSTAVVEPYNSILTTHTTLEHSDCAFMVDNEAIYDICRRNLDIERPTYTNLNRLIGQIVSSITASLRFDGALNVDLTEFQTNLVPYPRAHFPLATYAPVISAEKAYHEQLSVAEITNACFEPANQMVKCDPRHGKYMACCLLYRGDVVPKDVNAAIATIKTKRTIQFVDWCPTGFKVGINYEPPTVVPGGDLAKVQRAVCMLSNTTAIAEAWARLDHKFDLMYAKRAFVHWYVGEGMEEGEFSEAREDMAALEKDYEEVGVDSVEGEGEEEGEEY

## CC(=O)O[C@H]1C(=O)[C@]2(C)[C@@H](O)CC3OC[C@@]3(OC(=O)N3CC3)[C@H]2[C@H](OC(=O)c2ccccc2)[C@]2(O)C[C@H](OC(=O)[C@H](O)[C@@H](NC(=O)OC(C)(C)C)c3ccco3)C(C)=C1C2(C)C (stereo not given in full)
HCT-116
  IC50: 2 nM
[1]
  Ratio: 0.8

## CC(=O)O[C@H]1C(=O)[C@]2(C)[C@@H](O)CC3OC[C@@]3(OC(C)=O)[C@H]2[C@H](OC(=O)c2ccccc2)[C@]2(O)C[C@H](OC(=O)[C@H](O)[C@@H](NC(=O)c3ccccc3)c3ccoc3)C(C)=C1C2(C)C (stereo not given in full)
HCT-116
  IC50: 0.74 nM
[1]
  Ratio: 0.85

## CC(=O)O[C@H]1C(=O)[C@]2(C)[C@@H](O)CC3OC[C@@]3(OC(=O)N3CC3)[C@H]2[C@H](OC(=O)c2ccccc2)[C@]2(O)C[C@H](OC(=O)[C@H](O)[C@@H](NC(=O)c3ccccc3)c3ccco3)C(C)=C1C2(C)C (stereo not given in full)
HCT-116
  IC50: 6.9 nM
[1]
  Ratio: 0.7

## CC(=O)O[C@H]1C(=O)[C@]2(C)[C@@H](O)CC3OC[C@@]3(OC(=O)C3CC3)[C@H]2[C@H](OC(=O)c2ccccc2)[C@]2(O)C[C@H](OC(=O)[C@H](O)[C@@H](NC(=O)c3ccccc3)c3ccccc3)C(C)=C1C2(C)C (stereo not given in full)
HCT-116
  IC50: 1 nM

## CC(=O)O[C@H]1C(=O)[C@@]2(C)[C@H]([C@H](OC(=O)c3ccccc3)[C@]3(O)C[C@H](OC(=O)[C@H](O)[C@@H](NC(=O)c4ccccc4)c4ccccc4)C(C)=C1C3(C)C)[C@]1(OC(=O)N3CC3)CO[C@@H]1C[C@@H]2O
HCT-116
  IC50: 15.6 nM

## CC(=O)O[C@H]1C(=O)[C@]2(C)[C@@H](O)CC3OC[C@@]3(OC(C)=O)[C@H]2[C@H](OC(=O)c2ccccc2)[C@]2(O)C[C@H](OC(=O)[C@H](O)[C@@H](NC(=O)OC(C)(C)C)c3ccccc3)C(C)=C1C2(C)C (stereo not given in full)
HCT-116
  IC50: 0.55 nM
[1]
  Ratio: 0.55
